In the NIST ThermoML archive (doi:10.1021/je1012789):
± gives the expanded uncertainty stated by the source.

Experiment: mn = molality of the nth substance listed, in mol/kg
Settings: 101 kPa, Liquid

O=[N+]([O-])[O-].[K+] [potassium nitrate] + O
Settings | mass density [kg/m3] | speed of sound [m/s] | viscosity [mPa·s]
293.15 K, m1 = 0.2 | 1010.62 ± 0.29 | 1490.7 ± 1.6 | 0.98 ± 0.025
293.15 K, m1 = 0.3 | 1016.69 ± 0.3 | 1493.5 ± 1.6 | 0.977 ± 0.025
293.15 K, m1 = 0.4 | 1022.68 ± 0.31 | 1497.4 ± 1.6 | 0.973 ± 0.024
293.15 K, m1 = 0.5 | 1028.6 ± 0.32 | 1501 ± 1.6 | 0.97 ± 0.024
293.15 K, m1 = 0.6 | 1034.61 ± 0.33 | 1504.4 ± 1.6 | 0.967 ± 0.024
293.15 K, m1 = 0.7 | 1040.37 ± 0.34 | 1507.6 ± 1.6 | 0.963 ± 0.024
298.15 K, m1 = 0.2 | 1009.41 ± 0.29 | 1504 ± 1.6 | 0.871 ± 0.022
298.15 K, m1 = 0.3 | 1015.47 ± 0.3 | 1507 ± 1.6 | 0.869 ± 0.022
298.15 K, m1 = 0.4 | 1021.25 ± 0.31 | 1510.1 ± 1.6 | 0.867 ± 0.022
298.15 K, m1 = 0.5 | 1027.13 ± 0.32 | 1513.4 ± 1.6 | 0.862 ± 0.022
298.15 K, m1 = 0.6 | 1032.84 ± 0.33 | 1517 ± 1.6 | 0.862 ± 0.022
298.15 K, m1 = 0.7 | 1038.56 ± 0.34 | 1520 ± 1.6 | 0.859 ± 0.022
303.15 K, m1 = 0.2 | 1007.8 ± 0.29 | 1515.6 ± 1.6 | 0.778 ± 0.02
303.15 K, m1 = 0.3 | 1013.82 ± 0.3 | 1518.7 ± 1.6 | 0.776 ± 0.02
303.15 K, m1 = 0.4 | 1019.62 ± 0.31 | 1522 ± 1.6 | 0.775 ± 0.02
303.15 K, m1 = 0.5 | 1025.4 ± 0.32 | 1524.7 ± 1.6 | 0.774 ± 0.02
303.15 K, m1 = 0.6 | 1031.2 ± 0.33 | 1528.4 ± 1.6 | 0.773 ± 0.02
303.15 K, m1 = 0.7 | 1036.79 ± 0.33 | 1530.9 ± 1.6 | 0.772 ± 0.02
308.15 K, m1 = 0.2 | 1006.09 ± 0.28 | 1526 ± 1.6 | 0.672 ± 0.018
308.15 K, m1 = 0.3 | 1011.97 ± 0.29 | 1528.8 ± 1.6 | 0.67 ± 0.018
308.15 K, m1 = 0.4 | 1017.79 ± 0.3 | 1531.4 ± 1.6 | 0.669 ± 0.018
308.15 K, m1 = 0.5 | 1023.58 ± 0.31 | 1534.3 ± 1.6 | 0.678 ± 0.018
308.15 K, m1 = 0.6 | 1029.21 ± 0.32 | 1536.8 ± 1.6 | 0.666 ± 0.018
308.15 K, m1 = 0.7 | 1034.87 ± 0.33 | 1539.4 ± 1.6 | 0.665 ± 0.018
313.15 K, m1 = 0.2 | 1004.28 ± 0.28 | 1534.6 ± 1.6 | 0.595 ± 0.016
313.15 K, m1 = 0.3 | 1009.98 ± 0.29 | 1537.5 ± 1.6 | 0.593 ± 0.016
313.15 K, m1 = 0.4 | 1015.89 ± 0.3 | 1539.7 ± 1.6 | 0.585 ± 0.016
313.15 K, m1 = 0.5 | 1021.56 ± 0.31 | 1542.5 ± 1.6 | 0.577 ± 0.016
313.15 K, m1 = 0.6 | 1027.23 ± 0.32 | 1544.8 ± 1.6 | 0.569 ± 0.016
313.15 K, m1 = 0.7 | 1032.76 ± 0.33 | 1547.7 ± 1.6 | 0.563 ± 0.016

[Br-].[K+] [potassium bromide] + O
Settings | mass density [kg/m3] | speed of sound [m/s] | viscosity [mPa·s]
293.15 K, m1 = 0.2 | 1015.19 ± 0.3 | 1487 ± 1.6 | 0.985 ± 0.025
293.15 K, m1 = 0.3 | 1023.34 ± 0.32 | 1488.9 ± 1.6 | 0.975 ± 0.025
293.15 K, m1 = 0.4 | 1031.61 ± 0.33 | 1490.9 ± 1.6 | 0.97 ± 0.024
293.15 K, m1 = 0.5 | 1039.7 ± 0.35 | 1492.8 ± 1.6 | 0.97 ± 0.024
293.15 K, m1 = 0.6 | 1047.69 ± 0.36 | 1493.4 ± 1.6 | 0.95 ± 0.024
293.15 K, m1 = 0.7 | 1055.7 ± 0.38 | 1497.1 ± 1.6 | 0.936 ± 0.024
298.15 K, m1 = 0.2 | 1013.8 ± 0.3 | 1500.6 ± 1.6 | 0.873 ± 0.022
298.15 K, m1 = 0.3 | 1022.08 ± 0.32 | 1503.2 ± 1.6 | 0.863 ± 0.022
298.15 K, m1 = 0.4 | 1030.17 ± 0.33 | 1504 ± 1.6 | 0.86 ± 0.022
298.15 K, m1 = 0.5 | 1038.34 ± 0.34 | 1506.5 ± 1.6 | 0.857 ± 0.022
298.15 K, m1 = 0.6 | 1046.11 ± 0.36 | 1506 ± 1.6 | 0.846 ± 0.022
298.15 K, m1 = 0.7 | 1054.22 ± 0.37 | 1509.1 ± 1.6 | 0.832 ± 0.021
303.15 K, m1 = 0.2 | 1012.3 ± 0.3 | 1512.5 ± 1.6 | 0.782 ± 0.02
303.15 K, m1 = 0.3 | 1020.51 ± 0.31 | 1514.2 ± 1.6 | 0.772 ± 0.02
303.15 K, m1 = 0.4 | 1028.56 ± 0.33 | 1516 ± 1.6 | 0.769 ± 0.02
303.15 K, m1 = 0.5 | 1036.79 ± 0.34 | 1517.2 ± 1.6 | 0.765 ± 0.02
303.15 K, m1 = 0.6 | 1044.6 ± 0.35 | 1517.9 ± 1.6 | 0.76 ± 0.02
303.15 K, m1 = 0.7 | 1052.52 ± 0.37 | 1520.4 ± 1.6 | 0.74 ± 0.019
308.15 K, m1 = 0.2 | 1010.63 ± 0.3 | 1523.4 ± 1.6 | 0.698 ± 0.018
308.15 K, m1 = 0.3 | 1018.9 ± 0.31 | 1524.6 ± 1.6 | 0.688 ± 0.018
308.15 K, m1 = 0.4 | 1026.73 ± 0.32 | 1526.4 ± 1.6 | 0.682 ± 0.018
308.15 K, m1 = 0.5 | 1035 ± 0.34 | 1527.7 ± 1.6 | 0.678 ± 0.018
308.15 K, m1 = 0.6 | 1042.99 ± 0.35 | 1527.8 ± 1.6 | 0.674 ± 0.018
308.15 K, m1 = 0.7 | 1050.61 ± 0.36 | 1529.6 ± 1.6 | 0.664 ± 0.018
313.15 K, m1 = 0.2 | 1008.74 ± 0.29 | 1532.3 ± 1.6 | 0.622 ± 0.017
313.15 K, m1 = 0.3 | 1016.99 ± 0.31 | 1532.8 ± 1.6 | 0.612 ± 0.017
313.15 K, m1 = 0.4 | 1024.78 ± 0.32 | 1534.7 ± 1.6 | 0.608 ± 0.017
313.15 K, m1 = 0.5 | 1032.88 ± 0.33 | 1535.5 ± 1.6 | 0.605 ± 0.016
313.15 K, m1 = 0.6 | 1041.01 ± 0.35 | 1535.9 ± 1.6 | 0.602 ± 0.016
313.15 K, m1 = 0.7 | 1048.62 ± 0.36 | 1538.1 ± 1.6 | 0.595 ± 0.016
